Assays:
2B4/BCL-2 = assay: MCL-1-selective apoptosis induction in 2B4 cells – cell-based, fluorescence, assay provider data, selectivity assay for MCL1-BIM inhibitor project, late-stage follow-up (AID 493062); conditions: 2B4/MCL-1 caspase activation fluorescence
2B4/MCL-1 = assay: as above; conditions: 2B4/MCL-1 caspase activation fluorescence

SMILES	EC50 (2B4/BCL-2)	EC50 (2B4/MCL-1)
CCCCn1c(N)c(N(CC(C)C)C(=O)c2cc(-c3ccco3)nc3ccccc23)c(=O)[nH]c1=O	> 25 µM	> 25 µM
O=C(c1cc(-c2ccco2)nc2ccccc12)N1CCN(Cc2ccccc2)CC1	> 25 µM	> 25 µM
COc1ccc(Cc2nnc(NC(=O)Cc3cccnc3)s2)cc1OC	> 25 µM	> 25 µM
Cc1ccnc(NC(=O)c2cc(-c3ccco3)nc3ccc(Br)cc23)c1	> 25 µM	12 µM
CCC(=O)Nc1nnc(Cc2ccccc2)s1	> 25 µM	> 25 µM
Cc1ccc(-c2cc(C(=O)Nc3ccccn3)c3ccccc3n2)o1	> 25 µM	> 25 µM
COc1ccc(Cc2nnc(NC(=O)C3(c4ccccc4)CC3)s2)cc1OC	> 25 µM	> 25 µM
Cc1ccc(-c2cc(C(=O)N3CCCC(C(F)(F)F)C3)c3ccccc3n2)o1 (stereo not drawn)	> 25 µM	> 25 µM
O=C(NC1CCC(O)CC1)c1cc(-c2ccco2)nc2ccccc12 (stereo not drawn)	> 25 µM	> 25 µM
CC(=O)N1CCN(C(=O)c2cc(-c3ccc(C)o3)nc3ccccc23)CC1	> 25 µM	> 25 µM
Cc1ccc(-c2cc(C(=O)N3CC(C)CC(C)C3)c3ccccc3n2)o1 (stereo not drawn)	> 25 µM	> 25 µM
CCOC(=O)c1cc(-c2ccco2)nc2c1c(C)nn2-c1ccccc1	> 25 µM	> 25 µM
COc1ccc(Cc2nnc(NC(=O)C(F)c3ccccc3)s2)cc1OC (stereo not drawn)	> 25 µM	> 25 µM
Cc1cccc(NC(=O)c2cc(-c3ccc(C)o3)nc3ccccc23)n1	25 µM	40 µM
COc1ccc(Cc2nnc(NC(=O)CCc3cccs3)s2)cc1OC	> 25 µM	> 25 µM
O=C(c1cc(-c2ccco2)nc2ccccc12)N1CCCC(C(F)(F)F)C1 (stereo not drawn)	> 25 µM	> 25 µM
Cc1ccc(NC(=O)c2cc(-c3ccc(C)o3)nc3ccccc23)nc1	> 25 µM	> 25 µM
CCOc1cc(N2CCOCC2)c(OCC)cc1NC(=O)c1cc(-c2ccco2)nc2ccccc12	> 25 µM	> 25 µM
CCN(CC)C(=O)COc1ccc2c(-c3ccc(OC)cc3)cc(=O)oc2c1C	> 25 µM	> 25 µM
Cc1ccc(NC(=O)c2cc(-c3ccc(C)o3)nc3ccccc23)cc1	> 25 µM	> 25 µM
Cc1ccc(-c2cc(C(=O)N3CCN(c4ccc(F)cc4)CC3)c3ccccc3n2)o1	> 25 µM	> 25 µM
O=C(Nc1ccccn1)c1cc(-c2ccco2)nc2ccc(Br)cc12	3 µM	> 25 µM

Other lines, results leading:

EC50 (2B4/BCL-2)	EC50 (2B4/MCL-1)	SMILES
> 25 µM	> 25 µM	Cc1ccc(S(=O)(=O)N(C)C)cc1NC(=O)c1cc(-c2ccco2)nc2ccccc12
> 25 µM	> 25 µM	COc1ccc(NC(=O)c2cc(-c3ccc(C)o3)nc3ccccc23)cc1
> 25 µM	> 25 µM	O=C(Nc1ccccc1N1CCOCC1)c1cc(-c2ccco2)nc2ccccc12
> 25 µM	> 25 µM	COc1cccc(NC(=O)CN(C)C(=O)c2cc(-c3ccco3)nc3ccccc23)c1
> 25 µM	> 25 µM	CN(CC(=O)Nc1cccc(F)c1)C(=O)c1cc(-c2ccco2)nc2ccccc12
> 25 µM	> 25 µM	CCc1nnc(NC(=O)c2cc(-c3ccco3)nc3ccccc23)s1
> 25 µM	> 25 µM	O=C(Nc1nc2ccccc2s1)c1cc(-c2ccco2)nc2ccccc12
> 25 µM	> 25 µM	CC(C)CCNC(=O)c1cc(-c2ccco2)nc2ccccc12
> 25 µM	> 25 µM	COc1ccc(CCNC(=O)c2cc(-c3ccco3)nc3ccccc23)cc1
> 25 µM	> 25 µM	COc1ccc(NC(=O)c2cc(-c3ccco3)nc3ccccc23)cc1
> 25 µM	> 25 µM	O=C(Nc1cccc(S(=O)(=O)NC2=NCCCCC2)c1)c1cc(-c2ccco2)nc2ccccc12
> 25 µM	> 25 µM	COC(=O)C1CCN(C(=O)c2cc(-c3ccco3)nc3ccccc23)CC1

From PubChem BioAssay AID493062 (The Scripps Research Institute Molecular Screening Center, 2011)
